Structures are written as SMILES. Calls of active or inactive are those of the source. The rule behind the calls is not given here.

For test [1], the target named is Tumor necrosis factor receptor superfamily member 10B (Homo sapiens) (UniProt O14763). Put plainly: Increase in DR5 promoter activity in SacI gene expressing human DLD1 cells at 17.5 to 70 uM after 24 hrs by luciferase reporter gene assay relative to control. It is filed as cell-based. The settings on record: DLD-1. In general terms: Reporter assays use an easily measured gene product as a stand-in for the process of interest.
Sequence of Tumor necrosis factor receptor superfamily member 10B (Homo sapiens) (O14763 whole entry): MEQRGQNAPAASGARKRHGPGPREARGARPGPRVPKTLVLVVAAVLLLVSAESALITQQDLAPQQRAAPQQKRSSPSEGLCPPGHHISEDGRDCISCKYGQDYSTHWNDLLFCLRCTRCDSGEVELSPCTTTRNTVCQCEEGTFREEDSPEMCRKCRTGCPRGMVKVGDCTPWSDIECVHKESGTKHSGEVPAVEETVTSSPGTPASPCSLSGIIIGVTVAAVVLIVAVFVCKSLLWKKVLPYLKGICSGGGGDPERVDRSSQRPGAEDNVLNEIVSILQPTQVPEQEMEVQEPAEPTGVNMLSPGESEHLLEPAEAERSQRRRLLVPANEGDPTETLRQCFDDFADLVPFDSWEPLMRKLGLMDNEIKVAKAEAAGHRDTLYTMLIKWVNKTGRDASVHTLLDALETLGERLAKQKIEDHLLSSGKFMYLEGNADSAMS

Test [2] shares this target. Description: Increase in DR5 promoter activity in SacI gene expressing human DLD1 cells at 17.5 uM after 24 hrs by luciferase reporter gene assay relative to control. It is filed as cell-based. The settings on record: DLD-1.
Test [3] has as its system AGS. Put plainly: Cytotoxicity against TRAIL-resistant human AGS cells assessed as cell viability at 17.5 uM after 24 hrs by fluorometric microculture assay. In kind it is functional. The settings on record: read-out: Activity.
Test [4] relates to AGS. Description: Cytotoxicity against TRAIL-resistant human AGS cells assessed as cell viability at 17.5 uM after 24 hrs by fluorometric microculture assay in presence of 100 ng/ml TRAIL. It is filed as functional.
Test [5] deals with AGS. Description: Cytotoxicity against TRAIL-resistant human AGS cells assessed as cell viability at 12.5 uM after 24 hrs by fluorometric microculture assay in presence of 100 ng/ml TRAIL. In kind it is functional.

On to `COC(C)(C)/C=C/C[C@@H](C)[C@H]1CC[C@@]2(C)[C@@H]3[C@@H](O)C[C@H]4C(C)(C)C(=O)CC[C@@]45C[C@@]35CC[C@]12C`, for which the fold change (FC) in test [1] was 2.5.

In the case of `O=c1cc(-c2ccc(O)c(O)c2)oc2cc(O)cc(O)c12` [LUTEOLIN], the result in test [2] was Active. For the same compound, in the test on AGS [3], the viability at 17.5 µM was 51%.

Consider `COc1ccc(-c2oc3cc(O)cc(O)c3c(=O)c2OC)cc1O`, for which the Activity is 24% in the test on AGS [4] and 27% in the test with AGS [5]. The compound also returned a fold change (FC) in test [1] of 6.7.

Take `COc1c(O)cc(-c2oc3cc(O)cc(O)c3c(=O)c2OC)cc1O`: in test [1], the fold change (FC) worked out at 2.

In test [1], `C=C(C)[C@@H](O)CC[C@@H](C)[C@H]1CC[C@@]2(C)[C@@H]3[C@@H](OC(C)=O)C[C@H]4[C@](C)(C(=O)O)[C@@H](O)CC[C@@]45C[C@@]35CC[C@]12C` had a fold change (FC) of 1.7.

Take `COc1cc(-c2oc3cc(O)cc(O)c3c(=O)c2OC)cc(O)c1OC`: the fold change (FC) in test [1] was 2.2.

The values above are taken from ChEMBL document CHEMBL1687869, “Cycloartane triterpenes isolated from Combretum quadrangulare in a screening program for death-receptor expression enhancing activity” (2011).
